Data reported in patent publication US8658604B2, “Template-fixed beta-hairpin peptidomimetics with protease inhibitory activity” (Polyphor Ltd, priority 2005, dated 2014).
Where two headings read alike, the source gives them in different places. Where a SMILES comes first, the peptide text is derived from it. Bridges are numbered along the chain shown (N, C = ends). [ ]: non-standard residue; d: D form. Nle = CCCC[C@H](N)C(=O)O; Abu = CC[C@H](N)C(=O)O

Key:
[1] = tested on: HELA cells (Acc57); assay: Cytotoxicity assay (MTT reduction), HELA cells; assay type: cell-based
Procedure: The cytotoxicity of the peptides to HELA cells (Acc57) and COS-7 cells (CRL-1651) was determined using the MTT reduction assay [see ref. 2 and 3, below]. Briefly the method was as follows: HELA cells and COS-7 cells were seeded at 7.0×10^3 and, respectively, 4.5×10^3 cells per well and grown in 96-well microtiter plates for 24 hours at 37° C. at 5% CO2. At this point, time zero (Tz) was determined by MTT reduction (see below). The supernatant of the remaining wells was discarded, and fresh medium and the peptides in serial dilutions of 12.5, 25 and 50 μM were pipetted into the wells. Each peptide concentration was assayed in triplicate. Incubation of the cells was continued for 48 hours at 37° C. at 5% CO2. Wells were then washed once with phosphate buffered saline (PBS) and subsequently 100 μl MTT reagent (0.5 mg/ml in medium RPMI1640 and, respectively, DMEM) were added to the wells. This was incubated at 37° C. for 2 hours and subsequently the medium was aspirated and 100 μl isopropanol were added to each well. The absorbance at 595 nm of the solubilized product was measured (OD595peptide). For each concentration averages were calculated from triplicates. The percentage of growth was calculated as follows: (OD595peptide-OD595Tz-OD595Empty well)/(OD595Tz-OD595Empty well)×100% and was plotted for each peptide concentration.
The LC 50 values (Lethal Concentration, defined as the concentration that kills 50% of the cells) were determined for each peptide by using the trend line function of EXCEL (Microsoft Office 2000) for the concentrations (50, 25, 12.5 and 0 μM), the corresponding growth percentages and the value −50, (=TREND(C50:C0,%50:%0,−50)).
The GI 50 (Growth Inhibition) concentrations were calculated for each peptide by using a trend line function for the concentrations (50, 25, 12.5 and 0 μg/ml), the corresponding percentages and the value 50, (=TREND (C50:C0,%50:%0,50).

[2] = target: Trypsin, from human pancreas (Homo sapiens, UniProt P07477); assay: Enzymatic assay, trypsin; settings: at 100 μM
[3] = target: T1, Chymase, from human skin (Homo sapiens, UniProt P23946); assay: Enzymatic assay, chymase
T1 sequence (P23946 22-247): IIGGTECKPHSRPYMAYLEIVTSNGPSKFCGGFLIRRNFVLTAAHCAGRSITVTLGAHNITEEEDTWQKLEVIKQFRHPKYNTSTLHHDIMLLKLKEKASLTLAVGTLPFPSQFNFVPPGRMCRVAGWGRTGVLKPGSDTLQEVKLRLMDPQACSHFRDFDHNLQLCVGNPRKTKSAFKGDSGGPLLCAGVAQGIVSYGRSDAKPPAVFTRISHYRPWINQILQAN

[4] = target: T2, Elastase from human neutrophils (Homo sapiens, UniProt P08246); assay: Enzymatic assay, elastase
T2 sequence (P08246 30-267): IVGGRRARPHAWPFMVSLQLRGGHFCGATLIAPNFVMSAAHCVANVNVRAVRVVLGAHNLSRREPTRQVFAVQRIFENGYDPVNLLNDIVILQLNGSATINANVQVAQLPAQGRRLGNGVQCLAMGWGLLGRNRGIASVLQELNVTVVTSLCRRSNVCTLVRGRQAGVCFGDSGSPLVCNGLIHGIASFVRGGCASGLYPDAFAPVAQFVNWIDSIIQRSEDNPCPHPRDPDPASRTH

[5] = target: Thrombin, from Human Plasma (Homo sapiens, UniProt P00734); assay: Enzymatic assay, thrombin
[6] = tested on: Tryptase, from human lung; assay: Enzymatic assay, tryptase; settings: at 100 μM
[7] = target: Urokinase from human urine (Homo sapiens, UniProt P00749); assay: Enzymatic assay, urokinase
[8] = target: T3, CathepsinG, from human neutrophils (Homo sapiens, UniProt P08311); assay: Enzymatic assay, cathepsin G; settings: for IC50: Cathepsin G IC50
T3 sequence (P08311 21-244): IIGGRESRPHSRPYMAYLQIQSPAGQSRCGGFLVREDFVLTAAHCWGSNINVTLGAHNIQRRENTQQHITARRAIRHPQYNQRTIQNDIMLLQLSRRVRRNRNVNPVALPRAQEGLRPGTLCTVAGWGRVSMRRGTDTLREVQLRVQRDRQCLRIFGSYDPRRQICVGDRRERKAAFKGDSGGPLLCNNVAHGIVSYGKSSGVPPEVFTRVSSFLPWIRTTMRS

[9] = target: Chymotrypsin, from human pancreas (Homo sapiens, UniProt P17538); assay: Enzymatic assay, chymotrypsin
Chymotrypsin, from human pancreas, sequence (P17538 19-263): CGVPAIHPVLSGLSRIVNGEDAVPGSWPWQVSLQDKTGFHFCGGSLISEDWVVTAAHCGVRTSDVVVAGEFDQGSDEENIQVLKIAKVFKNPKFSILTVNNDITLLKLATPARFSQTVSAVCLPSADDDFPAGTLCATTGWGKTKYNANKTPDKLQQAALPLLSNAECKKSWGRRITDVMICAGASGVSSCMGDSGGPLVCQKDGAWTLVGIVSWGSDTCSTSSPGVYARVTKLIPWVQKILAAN

[10] = target: Coagulation Factor Xa, from uman plasma (Homo sapiens, UniProt P00742); assay: Enzymatic assay, coagulation factor Xa
Coagulation Factor Xa, from uman plasma, sequence (P00742 235-488 limits assumed): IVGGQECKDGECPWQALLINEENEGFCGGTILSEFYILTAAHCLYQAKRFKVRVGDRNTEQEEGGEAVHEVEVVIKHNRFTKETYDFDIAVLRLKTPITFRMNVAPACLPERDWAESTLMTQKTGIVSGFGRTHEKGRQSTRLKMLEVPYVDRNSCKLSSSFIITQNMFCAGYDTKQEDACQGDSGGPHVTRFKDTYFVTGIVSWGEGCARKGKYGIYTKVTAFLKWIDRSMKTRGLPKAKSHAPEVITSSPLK
Coagulation Factor Xa, from uman plasma, sequence (P00742 41-179 limits assumed): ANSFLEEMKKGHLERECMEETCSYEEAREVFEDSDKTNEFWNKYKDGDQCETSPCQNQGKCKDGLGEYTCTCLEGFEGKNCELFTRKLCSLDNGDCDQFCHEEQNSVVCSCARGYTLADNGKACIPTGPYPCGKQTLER

Compound	Cytotoxicity LC50/GI50 Hela cells ([1]; Hela cells) [µM]	Trypsin at 100 μM % [2] [%]	Chymase at 100 μM % [3] [%]	IC50 ([4]; Elastase IC50) [µM]	Thrombin at 100 μM % [5] [%]	Tryptase at 100 μM % [6] [%]	Urokinase at 100 μM % [7] [%]	IC50 [8] [µM]	IC50 [9] [µM]	FXa at 100 μM % [10] [%]	Cytotoxicity LC50/GI50 Hela cells [1] [µM]	IC50 ([4]; read-out: Elastase IC50) [µM]	IC50 ([9]; read-out: Chymotrypsin IC50) [µM]	Tryptase At 100 μM % [6] [%]	Cathepsin G at 100 μM % ([8]; at 100 μM) [at 100%]	Chymotrypsin at 100 μM % ([9]; at 100 μM) [%]	Cathepsin G at 100 μM % ([8]; at 100 μM (stated in cell instead of IC50)) [at 100%]
CCCC[C@@H]1NC(=O)[C@@H]2CCCN2C(=O)[C@H]2CCCN2C(=O)[C@H](Cc2ccc3ccccc3c2)NC(=O)[C@@H]2CSSC[C@H](NC1=O)C(=O)N[C@@H]([C@@H](C)O)C(=O)N[C@@H](C)C(=O)N[C@@H](CO)C(=O)N[C@@H]([C@@H](C)CC)C(=O)N1CCC[C@H]1C(=O)N1CCC[C@H]1C(=O)N[C@@H](CCC(N)=O)C(=O)N2 [Ex. 95] (HELM PEPTIDE1{[Nle].C.T.A.S.I.P.P.Q.C.[O=C([C@H](Cc1ccc2ccccc2c1)N[*:1])[*:2]].[dP].P}$PEPTIDE1,PEPTIDE1,2:R3-10:R3|PEPTIDE1,PEPTIDE1,1:R1-13:R2$$$V2.0)	89	8.9	0	0.024	0	0	10.3	38.7	33.7	11.3	–	–	–	–	–	–	–
CCCCCC[C@@H]1NC(=O)[C@@H]2CCCN2C(=O)[C@H]2CCCN2C(=O)[C@H](Cc2ccc(O)cc2)NC(=O)[C@@H]2CSSC[C@H](NC1=O)C(=O)N[C@@H]([C@@H](C)O)C(=O)N[C@@H](C)C(=O)N[C@@H](CO)C(=O)N[C@@H]([C@@H](C)CC)C(=O)N1CCC[C@H]1C(=O)N1CCC[C@H]1C(=O)N[C@@H](CCC(N)=O)C(=O)N2 [Ex. 99] (HELM PEPTIDE1{[CCCCCC[C@H](N[*:1])C(=O)[*:2]].C.T.A.S.I.P.P.Q.C.Y.[dP].P}$PEPTIDE1,PEPTIDE1,2:R3-10:R3|PEPTIDE1,PEPTIDE1,1:R1-13:R2$$$V2.0)	58	30.5	0	0.016	0	0	17.4	85.2	8.56	0	–	–	–	–	–	–	–
CCCC[C@@H]1NC(=O)[C@@H]2CCCN2C(=O)[C@H]2CCCN2C(=O)[C@H](Cc2ccc(O)cc2)NC(=O)[C@@H]2CSSC[C@H](NC1=O)C(=O)N[C@@H]([C@@H](C)O)C(=O)N[C@@H](C)C(=O)N[C@@H](CO)C(=O)N[C@@H](C1CCCCC1)C(=O)N1CCC[C@H]1C(=O)N1CCC[C@H]1C(=O)N[C@@H](CCC(N)=O)C(=O)N2 [Ex. 84] (HELM PEPTIDE1{[Nle].C.T.A.S.[O=C([C@@H](N[*:1])C1CCCCC1)[*:2]].P.P.Q.C.Y.[dP].P}$PEPTIDE1,PEPTIDE1,2:R3-10:R3|PEPTIDE1,PEPTIDE1,1:R1-13:R2$$$V2.0)	9	10.8	0	0.018	20.6	4.2	10.4	20.2	17.1	13.3	–	–	–	–	–	–	–
Ex. 87: β-hairpin peptidomimetic of Table 1, template DPro-Pro (cyclo([Nle]C[Abu]ASIPPQCY); disulfide 2-10; also: DPro-Pro template, linkage not given here)	–	–	–	–	–	–	–	–	–	–	65	0.037	107	–	–	–	–
CCCC[C@@H]1NC(=O)[C@@H]2CCCN2C(=O)[C@H]2CCCN2C(=O)[C@H](Cc2ccc(O)cc2)NC(=O)[C@@H]2CSSC[C@H](NC1=O)C(=O)N[C@@H]([C@@H](C)O)C(=O)N[C@@H](C)C(=O)N[C@@H](CO)C(=O)N[C@@H](CC1CCCCC1)C(=O)N1CCC[C@H]1C(=O)N1CCC[C@H]1C(=O)N[C@@H](CCC(N)=O)C(=O)N2 [Ex. 141] (HELM PEPTIDE1{[Nle].C.T.A.S.[Cha].P.P.Q.C.Y.[dP].P}$PEPTIDE1,PEPTIDE1,2:R3-10:R3|PEPTIDE1,PEPTIDE1,1:R1-13:R2$$$V2.0)	56	0	0	–	0	–	–	–	–	15.3	–	–	–	44.5	63.4	72.9	–
CCCC[C@@H]1NC(=O)[C@@H]2CCCN2C(=O)[C@H]2CCCN2C(=O)[C@H](CCC(N)=O)NC(=O)[C@@H]2CSSC[C@H](NC1=O)C(=O)N[C@@H]([C@@H](C)O)C(=O)N[C@@H](C)C(=O)N[C@@H](CO)C(=O)N[C@@H]([C@@H](C)CC)C(=O)N1CCC[C@H]1C(=O)N1CCC[C@H]1C(=O)N[C@@H](CCC(N)=O)C(=O)N2 [Ex. 91] (HELM PEPTIDE1{[Nle].C.T.A.S.I.P.P.Q.C.Q.[dP].P}$PEPTIDE1,PEPTIDE1,2:R3-10:R3|PEPTIDE1,PEPTIDE1,1:R1-13:R2$$$V2.0)	79	0	4.7	0.028	13.5	–	–	–	48.1	19.4	–	–	–	–	–	–	45
CCCC[C@@H]1NC(=O)[C@@H]2CCCN2C(=O)[C@H]2CCCN2C(=O)[C@H](Cc2ccc(O)cc2)NC(=O)[C@@H]2CSSC[C@H](NC1=O)C(=O)N[C@@H]([C@@H](C)O)C(=O)N[C@@H](C)C(=O)N[C@@H](CO)C(=O)N[C@@H](CCC(C)C)C(=O)N1CCC[C@H]1C(=O)N1CCC[C@H]1C(=O)N[C@@H](CCC(N)=O)C(=O)N2 [Ex. 83] (HELM PEPTIDE1{[Nle].C.T.A.S.[CC(C)CC[C@H](N[*:1])C(=O)[*:2]].P.P.Q.C.Y.[dP].P}$PEPTIDE1,PEPTIDE1,2:R3-10:R3|PEPTIDE1,PEPTIDE1,1:R1-13:R2$$$V2.0)	12	–	–	0.043	–	–	–	–	100	–	–	–	–	–	–	–	–
CCCC[C@@H]1NC(=O)[C@H](C(C)C)NC(=O)[C@H]2CCCN2C(=O)[C@H](Cc2ccc(O)cc2)NC(=O)[C@@H]2CSSC[C@H](NC1=O)C(=O)N[C@@H]([C@@H](C)O)C(=O)N[C@@H](C)C(=O)N[C@@H](CO)C(=O)N[C@@H]([C@@H](C)CC)C(=O)N1CCC[C@H]1C(=O)N1CCC[C@H]1C(=O)N[C@@H](CCC(N)=O)C(=O)N2 [Ex. 125] (HELM PEPTIDE1{[Nle].C.T.A.S.I.P.P.Q.C.Y.[dP].V}$PEPTIDE1,PEPTIDE1,2:R3-10:R3|PEPTIDE1,PEPTIDE1,1:R1-13:R2$$$V2.0)	37	28.3	4.8	0.015	0	–	–	18.3	> 20	0	–	–	–	–	–	–	–
